Tested on: in vitro BBB model (HBMEC)
Test: BBB penetration in vitro: transport ratio across HBMEC transwell model
Type: in vitro ADME, human
Details: 240 minutes, FITC 10 μmol⋅L^−1

Question: With fluorescein isothiocyanate [FITC] as the substance, how does the BBB transportation ratio read?
Answer: The BBB transportation ratio was 4.53%.

Source: paper PMC6173183 (International Journal of Nanomedicine, 2018)
